# What was measured:
# [1] = molecular target: T1, MMP9 processing by HFL-1 cells (Homo sapiens, UniProt P14780); assay: Activation of proMMP9 by human fetal lung fibroblast (HFL-1) cultures (Western blot); format: cell-based; conditions: 3.3 μM, 30 nM elastase, final 72 hrs; mAb-L51/82
# T1 construct: host or cells: HFL-1 human fetal lung fibroblasts, TNFα plus neutrophil elastase
# Experimental: Compound-α was assessed additionally for ability to block the maturation of proMMP9 to active MMP9 in cultures of human fetal lung fibroblasts (HFL-1, American Type Culture Collection #CCL-153). Unlike rat synoviocytes, HFL-1 cells were unable to process proMMP9 to the active form without addition of neutrophil elastase. […] Rather, the function of elastase in this assay may be to inactivate tissue inhibitors of matrix metalloproteinases (TIMPs) that repress endogenous pathways of MMP9 activation (Am J Respir Crit. Care Med; 1999; 159:1138-46).
# HLF-1 were maintained in monolayer culture in DMEM with 10% FCS and were used between passage numbers 5-15. HLF-1 were embedded in collagen gels as described for rat SCW synoviocytes (vida supra). Half mL gels containing 0.4 million cells were dislodged into wells of 12 well Costar plates containing 1 mL/well of DMEM adjusted to contain 0.05% BSA and 100 ng/mL human TNFα (R&D Systems Cat #210-TA/CF). After overnight culture (37° C. and 5% CO2) wells were adjusted to contain an additional 0.5 mL of DMEM containing 0.05% BSA and with or without 13.2 μM Compound-α (final concentration was 3.3 μM Compound-α). Next, cultures were adjusted to contain 30 nM human elastase (Innovative Research). The plates were cultured an additional 72 hrs, at which time MMP9 secreted into the conditioned media was bound to gelatin-sepharose and evaluated by Western blot analysis as described for the rat synoviocyte cultures (vida supra). mAb-51/82 detected three forms of MMP9 in HFL-1 cultures.
# These included a form of approximately 100 kD with mobility similar to recombinant rat proMMP9, an approximately 80 kD form with mobility similar to rat active MMP9, and an approximately 86 kD intermediate form. In the absence of Compound-α, most of the MMP9 was present as the 80 kD form. In the presence of Compound-α, the 80 kD form was a minor fraction of the total signal while nearly half of the signal were contributed each by the 100 kD and 86 kD forms. […]
# A second experiment was performed to determine if the 80 kD form was mature active MMP9 and to determine the potency of Compound-α as an inhibitor of MMP9 maturation in this assay. HFL-1 cells embedded in collagen gels were cultured as described above in the presence of TNFα overnight and the cultures were then adjusted to contain 30 nM elastase and graded concentrations of Compound-α for an additional 72 hrs at which time MMP9 secreted into the conditioned media was bound to gelatin-sepharose and evaluated by Western blot analysis for active MMP9 using pAb-1246 raised against the N-terminal neoepitope of active MMP9 (Table 5). In the absence of Compound-α, pAb-1246 readily detected MMP9 with an electrophoretic mobility of approximately 80 kD. […]
# [2] = molecular target: T2, MMP9 in ankles of SCW-induced rats (Rattus norvegicus, UniProt P50282); assay: Pro and active MMP9 in ankles of rats with SCW-induced arthritis by Western blot; format: in vivo; conditions: Day 26, four hours after AM dose, FIG. 3A lanes 4-9
# T2 construct: from tissue; host or cells: tibia-tarsus joints (ankles) of female Lewis rats
# T2 sequence (P50282 20-708): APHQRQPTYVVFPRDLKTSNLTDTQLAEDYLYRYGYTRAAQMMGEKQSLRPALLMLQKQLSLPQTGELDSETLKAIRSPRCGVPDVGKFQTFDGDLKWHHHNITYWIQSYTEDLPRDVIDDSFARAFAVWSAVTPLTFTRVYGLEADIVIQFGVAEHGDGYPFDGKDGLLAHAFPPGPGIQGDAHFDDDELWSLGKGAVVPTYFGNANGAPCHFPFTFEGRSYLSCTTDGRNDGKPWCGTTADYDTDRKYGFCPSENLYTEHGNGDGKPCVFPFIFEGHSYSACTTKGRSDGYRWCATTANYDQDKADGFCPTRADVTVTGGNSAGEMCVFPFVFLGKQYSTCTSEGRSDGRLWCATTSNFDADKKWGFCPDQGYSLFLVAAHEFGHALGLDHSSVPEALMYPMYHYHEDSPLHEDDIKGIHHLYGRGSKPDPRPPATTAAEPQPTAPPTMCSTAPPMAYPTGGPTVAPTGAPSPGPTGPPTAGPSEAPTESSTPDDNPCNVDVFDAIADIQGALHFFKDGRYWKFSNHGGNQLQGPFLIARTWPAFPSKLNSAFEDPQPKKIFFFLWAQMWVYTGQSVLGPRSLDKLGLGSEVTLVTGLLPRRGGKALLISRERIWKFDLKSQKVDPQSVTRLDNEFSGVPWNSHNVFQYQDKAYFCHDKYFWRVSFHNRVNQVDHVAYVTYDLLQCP
# Experimental: Hind-limbs were skinned, severed just above the tibia-tarsus joint and below the metatarsals, and the tibia-tarsus joints (ankles) were weighed, snap frozen and pulverized on dry ice using a hammer and anvil. The pulverized tissue was suspended in 3 volumes (w:v) of ice-cold homogenization buffer containing 50 mM Tris pH 7.5, 150 mM NaCl, 5 mM EDTA, 1% Triton X100, 0.05% Brij 30, 10% dimethylsulfoxide and Complete EDTA-free Protease Inhibitor Cocktail (Roche Diagnostics). The suspended tissue was homogenized sequentially with a Kinematica AG Polytron and a Dounce homogenizer. Homogenates were centrifuged at 16,000×g for 10 min at 4° C. and the soluble fractions were saved. Dimethylsulfoxide was removed from a portion of each soluble fraction using PD MiniTrap™ G-25 desalting columns (GE Healthcare). Homogenates (0.25 mL), free of DMSO, were diluted with an equal volume of binding buffer (i.e., homogenization buffer without dimethylsufoxide) and adjusted to contain 50 μL of a 50% slurry of gelatin-conjugated sepharose. […]
# To induce arthritis, Female Lewis (LEW/N) rats, 5-6 weeks of age (80-100 g) were injected (i.p.) with SCW PG-PS as described above. […] Each ankle was measured 3 times and averaged, and treatment groups were randomized based on ankle thickness (Table 6). […]
# T1 sequence (P14780 20-707): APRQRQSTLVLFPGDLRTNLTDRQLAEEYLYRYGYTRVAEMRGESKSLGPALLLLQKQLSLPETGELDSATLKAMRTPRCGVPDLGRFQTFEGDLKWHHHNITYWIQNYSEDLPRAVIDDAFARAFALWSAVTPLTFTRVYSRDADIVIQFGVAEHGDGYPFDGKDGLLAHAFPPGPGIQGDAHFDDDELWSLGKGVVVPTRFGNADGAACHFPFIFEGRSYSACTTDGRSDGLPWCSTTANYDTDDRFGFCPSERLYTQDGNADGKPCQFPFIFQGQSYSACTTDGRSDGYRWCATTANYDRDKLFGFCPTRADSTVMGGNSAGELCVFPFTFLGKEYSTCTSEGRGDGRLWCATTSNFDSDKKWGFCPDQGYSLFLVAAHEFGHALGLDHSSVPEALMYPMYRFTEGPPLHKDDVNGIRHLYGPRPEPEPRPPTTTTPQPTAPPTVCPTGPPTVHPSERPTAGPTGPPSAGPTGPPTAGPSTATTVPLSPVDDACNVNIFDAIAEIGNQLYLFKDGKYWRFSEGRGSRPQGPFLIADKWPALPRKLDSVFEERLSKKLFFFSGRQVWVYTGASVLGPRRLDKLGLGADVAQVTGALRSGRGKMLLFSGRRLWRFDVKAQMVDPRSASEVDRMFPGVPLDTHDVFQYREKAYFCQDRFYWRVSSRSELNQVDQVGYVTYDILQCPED
compound,measurement,setting,value
"Cc1nc(C)c(-c2csc(Nc3cc(S(N)(=O)=O)ccc3OC(C)C)n2)s1 [Compound-α, 3-(2′,4′-Dimethyl-[4,5′]bithiazolyl-2-ylamino)-4-isopropoxy-benzenesulfonamide.HBr]","Percent of total signal, 80 kD",[1],7%
same,"Percent of total signal, 86 kD",[1],47%
same,"Percent of total signal, 100 kD",[1],46%
same,"Signal, Total",[1],91346 INT*mm^2
same,abundance of proMMP9 in ankles,[2],did not reduce the abundance of proMMP9
same,abundance of proMMP9 in ankles,[2]; listed as Compound α,did not reduce the abundance of proMMP-9

# Source: patent US20120129843A1, “PYRIDYL-THIAZOLYL INHIBITORS OF PRO-MATRIX METALLOPROTEINASE ACTIVATION” (priority 2010, published 2012)
